According to patent publication US20020071842A1, “Soluble CD1 compositions and uses thereof” (priority 2000, published 2002):

Tests used:
KT/12 hybridoma = experiment: Plate-bound mCD1d fusion protein hybridoma stimulation assay (IL-2 ELISA); format: cell-based, mouse; conditions: KT/12 NKT hybridoma; plate-bound mCD1d-IgGFc2a fusion protein preincubated with lipid antigen
Outline: (§1)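 Fusion protein (400-600 ng/well) captured on protein A plates; lipid added in PBS pH 7.2, 40:1 default ratio; 24-48 hr 37° C; washed; hybridomas 1×10^5/well, 16-20 hr 37° C; IL-2 ELISA vs standard curve. Some wells: anti-mCD1d 19G11 at 20 μg/ml final.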

XV104 hybridoma = experiment: as above; format: cell-based, mouse; conditions: XV104 diverse TCR hybridoma; plate-bound mCD1d-IgGFc2a fusion protein preincubated with lipid antigen
Outline: as §1

14S.15.A hybridoma = experiment: as above; format: cell-based, mouse; conditions: 14S.15.A diverse TCR hybridoma; plate-bound mCD1d-IgGFc2a fusion protein preincubated with lipid antigen
Outline: as §1

DN32D3 hybridoma = experiment: as above; format: cell-based, mouse; conditions: DN32D3 NKT hybridoma; plate-bound mCD1d-IgGFc2a fusion protein preincubated with lipid antigen
Outline: as §1

24.9.E hybridoma = experiment: as above; format: cell-based, mouse; conditions: 24.9 E NKT hybridoma; plate-bound mCD1d-IgGFc2a fusion protein preincubated with lipid antigen
Outline: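 Lipid antigens were incubated with protein A-immobilized mCD1d fusion protein at pH 7.2 (or in citrate/phosphate buffer of specified pH, then neutralized), typically 40:1 antigen:protein. After washing, 1×10^5 hybridoma cells per well were added overnight, 16-20 hr, and IL-2 in supernatants was read by ELISA.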

VII68 hybridoma = experiment: as above; format: cell-based, mouse; conditions: VII68 diverse TCR hybridoma; plate-bound mCD1d-IgGFc2a fusion protein preincubated with lipid antigen
Outline: as §1

KT/23 hybridoma = experiment: as above; format: cell-based, mouse; conditions: KT/23 NKT hybridoma; plate-bound mCD1d-IgGFc2a fusion protein preincubated with lipid antigen
Outline: as §1

KT/22 hybridoma = experiment: as above; format: cell-based, mouse; conditions: KT/22 NKT hybridoma; plate-bound mCD1d-IgGFc2a fusion protein preincubated with lipid antigen
Outline: as §1

VIII24 hybridoma = experiment: as above; format: cell-based, mouse; conditions: VIII24 diverse TCR hybridoma; plate-bound mCD1d-IgGFc2a fusion protein preincubated with lipid antigen
Outline: as §1

24.7.C hybridoma = experiment: as above; format: cell-based, mouse; conditions: 24 7.C NKT hybridoma; plate-bound mCD1d-IgGFc2a fusion protein preincubated with lipid antigen
Outline: as §1

Vβ/9 hybridoma = experiment: as above; format: cell-based, mouse; conditions: Vβ/9 NKT hybridoma; plate-bound mCD1d-IgGFc2a fusion protein preincubated with lipid antigen
Outline: as §1

KT/7 hybridoma = experiment: as above; format: cell-based, mouse; conditions: KT/7 NKT hybridoma; plate-bound mCD1d-IgGFc2a fusion protein preincubated with lipid antigen
Outline: as §1

14S.6.A hybridoma = experiment: as above; format: cell-based, mouse; conditions: 14S.6.A diverse TCR hybridoma; plate-bound mCD1d-IgGFc2a fusion protein preincubated with lipid antigen
Outline: as §1

14S.10.C hybridoma = experiment: as above; format: cell-based, mouse; conditions: 14S.10 C diverse TCR hybridoma; plate-bound mCD1d-IgGFc2a fusion protein preincubated with lipid antigen
Outline: as §1

14S.7.N hybridoma = experiment: as above; format: cell-based, mouse; conditions: 14S.7.N diverse TCR hybridoma; plate-bound mCD1d-IgGFc2a fusion protein preincubated with lipid antigen
Outline: as §1

XV19 hybridoma = experiment: as above; format: cell-based, mouse; conditions: XV19 diverse TCR hybridoma; plate-bound mCD1d-IgGFc2a fusion protein preincubated with lipid antigen
Outline: as §1

24.8.A hybridoma = experiment: as above; format: cell-based, mouse; conditions: for IL-2 secretion: 24.8 A NKT hybridoma, plate-bound mCD1d-IgGFc2a fusion protein preincubated with lipid antigen
Outline: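 Protein A plates were loaded with 400-600 ng/well mCD1d fusion protein, then given lipid antigen (40:1 molar ratio to fusion protein unless specified) in PBS pH 7.2 for 24-48 h at 37 °C. After washing, 1×10^5 hybridoma cells/well were added for 16-20 h at 37 °C. Secreted IL-2 measured by sandwich ELISA against a murine IL-2 standard curve.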

[1] = tested on: human CD1d-restricted T cell clones; experiment: Flow cytometric staining with lipid treated multimerized CD1d-Fc aggregates; format: cell-based; conditions: flow cytometry; human CD1d-Fc/Alexa 488 protein A aggregate, 40:1 lipid to fusion protein, compared with DMSO alone
Method: To facilitate binding to CD1 specific T cells for detection by flow cytometry, a highly multimerized form of the CD1d fusion protein was formed using fluorescently labeled protein A molecules. Protein A molecules spontaneously associate in solution at neutral pH with immunoglobulin Fc regions, forming complexes containing four Fc molecules and two protein A molecules (4+2 complexes, reference 2). The human CD1d-Fc fusion protein was incubated with Alexa 488 dye labeled protein A, and the 4+2 complexes purified by size exclusion chromatography on a Pharmacia Superose 6 column using PBS pH 7.2 as a running buffer. The purified 4+2 aggregates were concentrated to 100 μg/ml with ovalbumin as a carrier protein. The CD1d-Fc aggregate was then pre-incubated for 24 to 48 hours at 37° C. with antigenic glycolipids dissolved in DMSO at a 40:1 molar ratio of lipid to fusion protein, or with an equivalent volume of DMSO alone as a negative control. The T cell staining was performed at room temperature or 4° C. for 20 min, at a concentration of 40 μg/ml of the lipid or control treated CD1d-Fc aggregate.
To facilitate binding to CD1 specific T cells for detection by flow cytometry, a highly multimerized form of the CD1d fusion protein is formed using fluorescently labeled protein A molecules. Protein A molecules spontaneously associate in solution at neutral pH with immunoglobulin Fc regions, forming complexes containing four Fc molecules and two protein A molecules (4+2 complexes, Langone, J.J. et al, Molec. and Cell. Biochem, 65(2):159-70 (1985)). The human CD1d-Fc fusion protein was incubated with Alexa 488-dye labeled protein A, and the 4+2 complexes purified by size exclusion chromatography on a Phannacia Superose 6 column using PBS pH 7.2 as a running buffer. The purified 4+2 aggregates are concentrated to 100 μg/ml with ovalbumin as a carrier protein. The CD1d-Fc aggregate is then pre-incubated for 24 to 48 hours at 37° C. with antigenic glycolipids dissolved in DMSO at a 40:1 molar ratio of lipid to fusion protein, or with an equivalent volume of DMSO alone as a negative control. The T cell staining is performed at room temperature or 4° C. for 20 min, at a concentration of 40 μg/ml of the lipid or control treated CD1d-Fc aggregate.
Flow cytometric analysis of a CD1d-restricted T cell clone stained with the multimerized CD1d-Fc fusion protein (abbreviated as “hd(8)-fl”) was performed as follows. Staining with CD1d-Fc treated with lipid antigens dissolved in DMSO was compared with CD1d-Fc treated with DMSO alone as a negative control. The specific lipid antigen used were: aGalCer is α-galactosyl ceramide (KRN7000); aGlcCer is α-glucosyl ceramide; aManCer is α-mannosyl ceramide; bGalCer is β-galactosyl ceramide; Cer is ceramide (acylphytosphingolipid).
Flow cytometric analysis of a series of human T cell clones stained with the multimerized CD1d-Fc fusion protein, treated with α-GalCer or DMSO alone also was performed, including staining of two different CD1d-restricted (“NKT”) T cell clones DN2.B9 and DN1.10B3. Four other T cell clones that are not CD1d-restricted also were stained.

| Substance | IL-2 secretion (KT/12 hybridoma) | IL-2 secretion (XV104 hybridoma) | IL-2 secretion (14S.15.A hybridoma) | IL-2 secretion (DN32D3 hybridoma) | IL-2 secretion (24.9.E hybridoma) | IL-2 secretion (VII68 hybridoma) | IL-2 secretion (KT/23 hybridoma) | IL-2 secretion (KT/22 hybridoma) | IL-2 secretion (VIII24 hybridoma) | IL-2 secretion (24.7.C hybridoma) | IL-2 secretion (Vβ/9 hybridoma) | IL-2 secretion (KT/7 hybridoma) | IL-2 secretion (14S.6.A hybridoma) | IL-2 secretion (14S.10.C hybridoma) | IL-2 secretion (14S.7.N hybridoma) | IL-2 secretion (XV19 hybridoma) | IL-2 response to mCD1d fusion protein pre-treated with purified or synthetic lipid (24.8.A hybridoma; 24.8.A hybridoma, compared to untreated or buffer treated fusion protein) | IL-2 secretion (24.8.A hybridoma) | staining of CD1d-restricted T cell clones by lipid treated CD1d-Fc aggregate [1] |
| --- | --- | --- | --- | --- | --- | --- | --- | --- | --- | --- | --- | --- | --- | --- | --- | --- | --- | --- | --- |
| phosphatidylserine [PS] | 0 (A “0” indicates a mean of less than 50 pg/ml IL-2 was secreted) | 0 (A “0” indicates a mean of less than 50 pg/ml IL-2 was secreted) | 0 (A “0” indicates a mean of less than 50 pg/ml IL-2 was secreted) | 0 (A “0” indicates a mean of less than 50 pg/ml IL-2 was secreted) | 0 (A “0” indicates a mean of less than 50 pg/ml IL-2 was secreted) | 0 (A “0” indicates a mean of less than 50 pg/ml IL-2 was secreted) | 0 (A “0” indicates a mean of less than 50 pg/ml IL-2 was secreted) | 0 (A “0” indicates a mean of less than 50 pg/ml IL-2 was secreted) | 0 (A “0” indicates a mean of less than 50 pg/ml IL-2 was secreted) | 0 (A “0” indicates a mean of less than 50 pg/ml IL-2 was secreted) | 0 (A “0” indicates a mean of less than 50 pg/ml IL-2 was secreted) | 0 (A “0” indicates a mean of less than 50 pg/ml IL-2 was secreted) | 0 (A “0” indicates a mean of less than 50 pg/ml IL-2 was secreted) | 0 (A “0” indicates a mean of less than 50 pg/ml IL-2 was secreted) | 0 (A “0” indicates a mean of less than 50 pg/ml IL-2 was secreted) | 0 (A “0” indicates a mean of less than 50 pg/ml IL-2 was secreted) | did not reproducibly significantly enhance reactivity | + (“+” indicates 50-250 pg/ml) | – |
| sphingomyelin | 0 (A “0” indicates a mean of less than 50 pg/ml IL-2 was secreted) | 0 (A “0” indicates a mean of less than 50 pg/ml IL-2 was secreted) | + (“+” indicates 50-250 pg/ml) | 0 (A “0” indicates a mean of less than 50 pg/ml IL-2 was secreted) | 0 (A “0” indicates a mean of less than 50 pg/ml IL-2 was secreted) | 0 (A “0” indicates a mean of less than 50 pg/ml IL-2 was secreted) | 0 (A “0” indicates a mean of less than 50 pg/ml IL-2 was secreted) | 0 (A “0” indicates a mean of less than 50 pg/ml IL-2 was secreted) | 0 (A “0” indicates a mean of less than 50 pg/ml IL-2 was secreted) | 0 (A “0” indicates a mean of less than 50 pg/ml IL-2 was secreted) | 0 (A “0” indicates a mean of less than 50 pg/ml IL-2 was secreted) | 0 (A “0” indicates a mean of less than 50 pg/ml IL-2 was secreted) | 0 (A “0” indicates a mean of less than 50 pg/ml IL-2 was secreted) | 0 (A “0” indicates a mean of less than 50 pg/ml IL-2 was secreted) | 0 (A “0” indicates a mean of less than 50 pg/ml IL-2 was secreted) | 0 (A “0” indicates a mean of less than 50 pg/ml IL-2 was secreted) | – | + (“+” indicates 50-250 pg/ml) | – |
| α-glucosyl ceramide [α-GlcCer] | – | – | – | – | – | – | – | – | – | – | – | – | – | – | – | – | – | – | positive staining |
| α-mannosyl ceramide [α-ManCer] | – | – | – | – | – | – | – | – | – | – | – | – | – | – | – | – | – | – | did not stain above background levels |
